In publication PMC11915375 (ACS Infectious Diseases, 2025):
Like-named read-outs stand apart in the source and are kept apart here.

What was measured:
T. cruzi CA-I/72 = assay: T. cruzi in vitro assay, C2C12 host cell; type: cell-based, Trypanosoma cruzi
[1] = tested on: Leishmania major amastigotes; assay: Leishmania major amastigote assay; type: cell-based; conditions: read-out: L. maj EC50
T. brucei = T. brucei proliferation inhibition assay; type: cell-based, Trypanosoma brucei; conditions: read-out: T. brucei EC50 ± S.D.
L. donovani = L. donovani in vitro assay; type: cell-based, Leishmania donovani
[2] = Leishmania donovani, read-out: L. don EC50, B10R host cell line
[3] = Trypanosoma cruzi, C2C12, read-out: T. cruzi EC50

Row | Compound | EC50 ([1]; amastigotes) [µM] | EC50 ([1]; Leishmania major) [µM] | EC50 (T. cruzi CA-I/72; read-out: T. cruzi EC50, C2C12 host cell) [µM] | EC50 (T. brucei) [µM] | EC50 (L. donovani; [2]) [µM] | EC50 (T. cruzi CA-I/72; [3]) [µM] | EC50 (T. brucei; Trypanosoma brucei) [µM] | EC50 (L. donovani; read-out: L. don EC50, B10R host cell line) [µM]
1 | 7-(4-((4-Methyl-1,4-diazepan-1-yl)sulfonyl)phenyl)-N-(4-(trifluoromethoxy)phenyl)cinnolin-4-amine [Compound 20b] | > 3.6 |  | > 10 | 0.58 ± 0.25 |  |  |  | 
2 | C[C@@H]1[C@H](O)[C@@H](C)/C=C/C=C/C=C/C=C/C=C/C=C/C=C/[C@H](O[C@@H]2O[C@H](C)[C@@H](O)[C@H](N)[C@@H]2O)C[C@@H]2O[C@](O)(C[C@@H](O)C[C@@H](O)[C@H](O)CC[C@@H](O)C[C@@H](O)CC(=O)O[C@H]1C)C[C@H](O)[C@H]2C(=O)O [Amphotericin B, reference compound] |  |  |  |  | 0.07 |  |  | 
3 | O=C(Cn1ccnc1[N+](=O)[O-])NCc1ccccc1 [Benznidazole, reference compound] |  |  |  |  |  | 3.77 |  | 
4 | Cc1ccc(Nc2cnnc3ccc(-c4ccc(S(=O)(=O)N5CCN(C)CC5)cc4)cc23)cn1 [Compound 13a, 6-(4-((4-Methylpiperazin-1-yl)sulfonyl)phenyl)-N-(6-methylpyridin-3-yl)cinnolin-4-amine] |  | > 21 |  |  | > 10 | 8.2 | 1.3 ± 0.027 | 
5 | CN1CCN(S(=O)(=O)c2ccc(-c3ccc4c(Nc5cnccn5)cnnc4c3)cc2)CC1 [Compound 15b, 7-(4-((4-Methylpiperazin-1-yl)sulfonyl)phenyl)-N-(pyrazin-2-yl)cinnolin-4-amine] |  | > 22 |  |  | 5.52 | 6.5 ± 2.3 | 9.7 ± 2.1 | 
6 | CN1CCN(S(=O)(=O)c2ccc(-c3ccc4nncc(Nc5ncccn5)c4c3)cc2)CC1 [Compound 16a, 6-(4-((4-Methylpiperazin-1-yl)sulfonyl)phenyl)-N-(pyrimidin-2-yl)cinnolin-4-amine] |  | > 22 |  |  | 9 | > 10 |  | 
7 | COc1ccc(Nc2cnnc3ccc(-c4ccc(S(=O)(=O)N5CCN(C)CC5)cc4)cc23)nc1 [Compound 19a, N-(5-Methoxypyridin-2-yl)-6-(4-((4-methylpiperazin-1-yl)sulfonyl)phenyl)cinnolin-4-amine] |  | > 20 |  |  | 4.9 | 3.8 | 1.9 ± 0.073 | 
8 | COc1ccc(Nc2cnnc3cc(-c4ccc(S(=O)(=O)N5CCN(C)CC5)cc4)ccc23)nc1 [Compound 19b, N-(5-Methoxypyridin-2-yl)-7-(4-((4-methylpiperazin-1-yl)sulfonyl)phenyl)cinnolin-4-amine] |  | > 20 |  |  | > 10 | > 10 |  | 
9 | COc1ccc(Nc2cnnc3cc(-c4ccc(N5CCN(C)CC5)cc4)ccc23)cc1 [Compound 23b, N-(4-Methoxyphenyl)-7-(4-(4-methylpiperazin-1-yl)phenyl)cinnolin-4-amine] |  | > 24 |  |  |  | 1.1 | 0.078 ± 0.031 | 
10 | CN1CCN(c2ccc(-c3ccc4nncc(Nc5ccc(OC(F)(F)F)cc5)c4c3)cc2)CC1 [Compound 24a, 6-(4-(4-Methylpiperazin-1-yl)phenyl)-N-(4-(trifluoromethoxy)phenyl)cinnolin-4-amine] |  | > 21 |  |  | 0.52 | 0.87 | 0.41 ± 0.024 | 
11 | COc1ccc(Nc2cnnc3ccc(-c4cnc(N5CCN(C)CC5)nc4)cc23)cc1 [Compound 27a, N-(4-Methoxyphenyl)-6-(2-(4-methylpiperazin-1-yl)pyrimidin-5-yl)cinnolin-4-amine] |  | > 23 |  |  | > 10 | 4.4 | 1.3 ± 0.27 | 
12 | CN1CCN(c2ncc(-c3ccc4nncc(Nc5ccc(OC(F)(F)F)cc5)c4c3)cn2)CC1 [Compound 28a, 6-(2-(4-Methylpiperazin-1-yl)pyrimidin-5-yl)-N-(4-(trifluoromethoxy)phenyl)cinnolin-4-amine] |  | > 21 |  |  | 1.5 | 4.2 | 1 ± 0.12 | 
13 | CN1CCCN(c2ncc(-c3ccc4nncc(Nc5ncc(Cl)cn5)c4c3)cn2)CC1 [Compound 29a, N-(5-Chloropyrimidin-2-yl)-6-(2-(4-methyl-1,4-diazepan-1-yl)pyrimidin-5-yl)cinnolin-4-amine] |  | > 22 |  |  | 0.22 | 6.7 | 1.7 ± 0.5 | 
14 | COc1ccc(Nc2cnnc3ccc(-c4cnc(N5CCCN(C)CC5)nc4)cc23)cc1 [Compound 30a, N-(4-Methoxyphenyl)-6-(2-(4-methyl-1,4-diazepan-1-yl)pyrimidin-5-yl)cinnolin-4-amine] |  | > 23 |  |  | > 10 | 5.1 | 2.1 ± 0.64 | 
15 | COc1ccc(Nc2cnnc3cc(-c4cnc(N5CCCN(C)CC5)nc4)ccc23)cc1 [Compound 30b, N-(4-Methoxyphenyl)-7-(2-(4-methyl-1,4-diazepan-1-yl)pyrimidin-5-yl)cinnolin-4-amine] |  | > 23 |  |  |  | 0.29 | 0.24 ± 0.088 | 
16 | COc1cnc(Nc2cnnc3ccc(-c4ccc(S(=O)(=O)N5CCCN(C)CC5)cc4)cc23)nc1 [Compound 35a, N-(5-Methoxypyrimidin-2-yl)-6-(4-((4-methyl-1,4-diazepan-1-yl)sulfonyl)phenyl)cinnolin-4-amine] |  | > 20 |  |  |  | > 10 | 0.27 ± 0.008 | 

The next lines start with results.

Row | EC50 ([1]; amastigotes) [µM] | EC50 ([1]; Leishmania major) [µM] | Compound | EC50 (T. cruzi CA-I/72; read-out: T. cruzi EC50, C2C12 host cell) [µM] | EC50 (T. brucei) [µM] | EC50 (L. donovani; [2]) [µM] | EC50 (T. cruzi CA-I/72; [3]) [µM] | EC50 (T. brucei; Trypanosoma brucei) [µM] | EC50 (L. donovani; read-out: L. don EC50, B10R host cell line) [µM]
17 |  | 0.005 | CN1CCN(S(=O)(=O)c2ccc(-c3ccc4nncc(Nc5ncc(Cl)cn5)c4c3)cc2)CC1 [Compound 14a, N-(5-Chloropyrimidin-2-yl)-6-(4-((4-methylpiperazin-1-yl)sulfonyl)phenyl)cinnolin-4-amine] |  |  |  | 4.1 | 0.82 ± 0.19 | 0.069
18 |  | 7.8 | CN1CCN(S(=O)(=O)c2ccc(-c3ccc4nncc(Nc5cnccn5)c4c3)cc2)CC1 [Compound 15a, 6-(4-((4-Methylpiperazin-1-yl)sulfonyl)phenyl)-N-(pyrazin-2-yl)cinnolin-4-amine] |  |  | > 10 | > 10 | 1.2 ± 0.18 | 
19 |  | > 11 | CN1CCN(S(=O)(=O)c2ccc(-c3ccc4c(Nc5ncccn5)cnnc4c3)cc2)CC1 [Compound 16b, 7-(4-((4-Methylpiperazin-1-yl)sulfonyl)phenyl)-N-(pyrimidin-2-yl)cinnolin-4-amine] |  |  | > 10 | > 10 | 11 ± 1.5 | 
20 |  | > 19 | COc1ccc(Nc2cnnc3ccc(-c4ccc(S(=O)(=O)N5CCN(C)CC5)cc4)cc23)cc1Cl [Compound 17a, N-(3-Chloro-4-methoxyphenyl)-6-(4-((4-methylpiperazin-1-yl)sulfonyl)phenyl)cinnolin-4-amine] |  |  | 9.3 | > 10 | 1.6 ± 0.36 | 
21 |  | > 20 | COc1ccc(Nc2cnnc3ccc(-c4ccc(S(=O)(=O)N5CCN(C)CC5)cc4)cc23)cc1 [Compound 18a, N-(4-Methoxyphenyl)-6-(4-((4-methylpiperazin-1-yl)sulfonyl)phenyl)cinnolin-4-amine] |  |  | 3.4 | 8 | 0.39 ± 0.2 | 
22 |  | > 20 | COc1ccc(Nc2cnnc3cc(-c4ccc(S(=O)(=O)N5CCN(C)CC5)cc4)ccc23)cc1 [Compound 18b, N-(4-Methoxyphenyl)-7-(4-((4-methylpiperazin-1-yl)sulfonyl)phenyl)cinnolin-4-amine] |  |  |  | 3.2 | 12 ± 0.63 | 
23 |  | 4.8 | CN1CCN(S(=O)(=O)c2ccc(-c3ccc4nncc(Nc5ccc(OC(F)(F)F)cc5)c4c3)cc2)CC1 [Compound 20a, 6-(4-((4-Methylpiperazin-1-yl)sulfonyl)phenyl)-N-(4-(trifluoromethoxy)phenyl)cinnolin-4-amine] |  |  | 0.11 | 6.8 | 0.35 ± 0.26 | 
24 |  | > 4.1 | COc1cnc(Nc2cnnc3ccc(-c4ccc(S(=O)(=O)N5CCN(C)CC5)cc4)cc23)nc1 [Compound 21a, N-(5-Methoxypyrimidin-2-yl)-6-(4-((4-methylpiperazin-1-yl)sulfonyl)phenyl)cinnolin-4-amine] |  |  | 5.77 | 1.3 | 6.6 ± 1.7 | 
25 |  | > 4.6 | CN1CCN(c2ccc(-c3ccc4nncc(Nc5ncc(Cl)cn5)c4c3)cc2)CC1 [Compound 22a, N-(5-Chloropyrimidin-2-yl)-6-(4-(4-methylpiperazin-1-yl)phenyl)cinnolin-4-amine] |  |  | > 10 | 0.31 | 0.15 ± 0.068 | 
26 |  | 4.2 | CN1CCN(c2ccc(-c3ccc4c(Nc5ncc(Cl)cn5)cnnc4c3)cc2)CC1 [Compound 22b, N-(5-Chloropyrimidin-2-yl)-7-(4-(4-methylpiperazin-1-yl)phenyl)cinnolin-4-amine] |  |  | > 10 | 2.3 | 0.72 ± 0.47 | 
27 |  | 4.7 | COc1ccc(Nc2cnnc3ccc(-c4ccc(N5CCN(C)CC5)cc4)cc23)cc1 [Compound 23a, N-(4-Methoxyphenyl)-6-(4-(4-methylpiperazin-1-yl)phenyl)cinnolin-4-amine] |  |  | 2.3 | 1.7 | 0.31 ± 0.18 | 
28 |  | > 4.7 | COc1cnc(Nc2cnnc3ccc(-c4ccc(N5CCN(C)CC5)cc4)cc23)nc1 [Compound 25a, N-(5-Methoxypyrimidin-2-yl)-6-(4-(4-methylpiperazin-1-yl)phenyl)cinnolin-4-amine] |  |  | 9.4 | 6.1 | 1.2 ± 0.38 | 
29 |  | > 4.6 | CN1CCN(c2ncc(-c3ccc4nncc(Nc5ncc(Cl)cn5)c4c3)cn2)CC1 [Compound 26a, N-(5-Chloropyrimidin-2-yl)-6-(2-(4-methylpiperazin-1-yl)pyrimidin-5-yl)cinnolin-4-amine] |  |  | > 10 | 2.7 |  | 
30 |  | > 4.7 | COc1ccc(Nc2cnnc3cc(-c4cnc(N5CCN(C)CC5)nc4)ccc23)cc1 [Compound 27b, N-(4-Methoxyphenyl)-7-(2-(4-methylpiperazin-1-yl)pyrimidin-5-yl)cinnolin-4-amine] |  |  |  | 3.3 | 0.36 ± 0.076 | 
